# Target: T1, active p38 alpha enzyme (Upstate Biotechnology) (Homo sapiens, UniProt Q16539)
# T1 construct: purchased Upstate Biotechnology
# Test: p38α biochemical assay (ATP turnover, luminescent detection, Cambrex PKlight)
# Settings: p38α biochemical assay, Table 1 Biological Activity
# Outline: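 Active p38α phosphorylates MapkapK2 whole protein with 1.4 uM final ATP, 2 h at 30C, in Tris/MOPS buffer with MgCl2, CaCl2, EGTA, EDTA, glycerol, β-mercaptoethanol and 1 mg/ml BSA. Compounds pin-delivered from DMSO; total ATP turnover read by luminescence after PKlight addition.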
# T1 sequence (Q16539 whole entry): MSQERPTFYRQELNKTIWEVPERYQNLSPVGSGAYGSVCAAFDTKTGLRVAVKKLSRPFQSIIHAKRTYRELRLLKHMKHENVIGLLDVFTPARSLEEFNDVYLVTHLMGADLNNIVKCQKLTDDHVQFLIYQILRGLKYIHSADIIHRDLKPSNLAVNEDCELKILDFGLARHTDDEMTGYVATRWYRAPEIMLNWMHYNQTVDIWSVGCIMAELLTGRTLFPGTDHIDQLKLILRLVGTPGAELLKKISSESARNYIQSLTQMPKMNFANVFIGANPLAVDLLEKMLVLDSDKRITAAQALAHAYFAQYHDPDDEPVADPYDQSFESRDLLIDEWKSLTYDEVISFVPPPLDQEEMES
row,Compound,IC50
1,CC(=O)c1cccc(C(=O)NCc2onc(-c3ccc(F)cc3)c2-c2nc(C(=O)NC(C)C)cs2)c1 [Example 644],> 1000 nM
2,CCCc1ccc(C(=O)NCc2onc(-c3ccc(F)cc3)c2-c2nc(C(=O)NC(C)C)cs2)cc1 [Example 651],> 1000 nM
3,Cc1cc(C(=O)NCc2nc(-c3ccc(F)cc3)c(-c3nc(C(=O)NC(C)C)cs3)o2)cc(Cl)n1 [Example 192],> 1000 nM
4,CC(C)NC(=O)c1csc(-c2oc(CNC(=O)C(O)CCl)nc2-c2ccc(F)cc2)n1 (stereo not drawn) [Example 115],≤ 1000 nM
5,CC(C)NC(=O)c1csc(-c2oc(CN3CCN(C(=O)c4ccc([N+](=O)[O-])cc4Cl)CC3)nc2-c2ccc(F)cc2)n1 [Example 509],> 1000 nM
6,COc1ccc2cc(C(C)C(=O)N3CCN(Cc4nc(-c5ccc(F)cc5)c(-c5nc(C(=O)NC(C)C)cs5)o4)CC3)ccc2c1 (stereo not drawn) [Example 550],> 1000 nM
7,Cc1cc(C)cc(C(=O)NCc2onc(-c3ccc(F)cc3)c2-c2nc(C(=O)NC(C)C)cs2)c1 [Example 613],> 1000 nM
8,CC(C)NC(=O)c1csc(-c2oc(CN3CCN(C(=O)C4CCCCC4)CC3)nc2-c2ccc(F)cc2)n1 [Example 355],≤ 1000 nM
9,CC(C)NC(=O)c1csc(-c2oc(CNC(=O)c3cc(Br)ccc3Cl)nc2-c2ccc(F)cc2)n1 [Example 320],≤ 1000 nM
10,Cc1cccc(C(=O)NCc2onc(-c3ccc(F)cc3)c2-c2nc(C(=O)NC(C)C)cs2)c1C [Example 611],> 1000 nM
11,CC(C)NC(=O)c1csc(-c2oc(CN3CCN(C(=O)c4ccc(F)cc4)CC3)nc2-c2ccc(F)cc2)n1 [Example 363],> 1000 nM
12,CC(C)NC(=O)c1csc(-c2c(-c3ccc(F)cc3)noc2CNC(=O)c2cccc(O)c2O)n1 [Example 622],> 1000 nM
13,CC(C)NC(=O)c1csc(-c2oc(CNC(=O)C3=CCCC3)nc2-c2ccc(F)cc2)n1 [Example 107],> 1000 nM
14,CC(C)NC(=O)c1csc(-c2oc(CN3CCN(C(=O)Cc4ccc(O)c(F)c4)CC3)nc2-c2ccc(F)cc2)n1 [Example 428],≤ 1000 nM
15,CC(C)NC(=O)c1csc(-c2oc(CN3CCN(C(=O)c4ccc(C(F)(F)F)cc4[N+](=O)[O-])CC3)nc2-c2ccc(F)cc2)n1 [Example 556],> 1000 nM
16,CCCCCc1ccc(C(=O)NCc2onc(-c3ccc(F)cc3)c2-c2nc(C(=O)NC(C)C)cs2)cc1 [Example 732],> 1000 nM
17,CC(C)NC(=O)c1csc(-c2c(-c3ccc(F)cc3)noc2CNC(=O)C2CCCN2C(=O)OC(C)(C)C)n1 (stereo not drawn) [Example 770],> 1000 nM
18,CC(C)NC(=O)c1csc(-c2c(-c3ccc(F)cc3)noc2CNC(=O)Cc2ccc(Br)cc2)n1 [Example 769],> 1000 nM
19,COc1ccc(Cl)cc1C(=O)NCc1onc(-c2ccc(F)cc2)c1-c1nc(C(=O)NC(C)C)cs1 [Example 713],> 1000 nM
20,"CNC(=O)c1csc(-c2sc(C)nc2-c2ccc(F)cc2)n1 [Example 47, 4′-(4-Fluoro-phenyl)-2′-methyl-|2,5′|bithiazolyl-4-carboxylic acid methylamide]",≤ 1000 nM

# Same assay, conditions: p38α kinase; Table 1 Biological Activity
row,Compound,IC50
1,CC(C)NC(=O)c1csc(-c2c(-c3ccc(F)cc3)noc2CNCC2CCCCC2)n1 [Example 1421],> 1000 nM
2,Cc1nc(-c2ccc(F)cc2)c(-c2nc(C(=O)N3CCN(C4CCCCC4)CC3)cs2)s1 [Example 1898],> 1000 nM
3,Cc1cc(C)cc(NC(=O)c2csc(-c3sc(C)nc3-c3ccc(F)cc3)n2)c1 [Example 1971],> 1000 nM
4,CC(C)NC(=O)c1csc(-c2c(-c3ccc(F)cc3)noc2CN2CCC(O)(c3ccc(Cl)cc3)CC2)n1 [Example 1615],> 1000 nM
5,COCCNC(=O)c1csc(-c2c(-c3ccc(F)cc3)n[nH]c2C2CCNCC2)n1 [Example 2043],≤ 1000 nM
6,COc1ccc(O)c(C(=O)N2CCC(c3[nH]nc(-c4ccc(F)cc4)c3-c3nc(C(=O)NC(C)C)cs3)CC2)c1 [Example 901],> 1000 nM
7,COc1ccc(OC)c(CCNCc2onc(-c3ccc(F)cc3)c2-c2nc(C(=O)NC(C)C)cs2)c1 [Example 1498],> 1000 nM
8,Cc1ccc([C@@H](C)NCc2onc(-c3ccc(F)cc3)c2-c2nc(C(=O)NC(C)C)cs2)cc1 [Example 1447],> 1000 nM
9,CC(C)NC(=O)c1csc(-c2oc(CN3CCN(c4cccc(Cl)c4)CC3)nc2-c2ccc(F)cc2)n1 [Example 1273],> 1000 nM
10,CC(C)NC(=O)c1csc(-c2c(-c3ccc(F)cc3)n[nH]c2C2CCN(C(=O)/C=C/c3ccccc3)CC2)n1 [Example 845],> 1000 nM
11,Cc1nc(-c2ccc(F)cc2)c(-c2nc(C(=O)NCCN3CCCC3)cs2)s1 [Example 1748],≤ 1000 nM
12,COc1ccc(CNC(=O)c2csc(-c3c(-c4ccc(F)cc4)n[nH]c3C3CCNCC3)n2)cc1 [Example 2102],≤ 1000 nM
13,CC(C)NC(=O)c1csc(-c2oc(CNc3ccc(F)cc3F)nc2-c2ccc(F)cc2)n1 [Example 1331],> 1000 nM
14,CC(C)NC(=O)c1csc(-c2c(-c3ccc(F)cc3)n[nH]c2C2CCN(C(=O)c3cc(Cl)ccn3)CC2)n1 [Example 869],≤ 1000 nM
15,C#CCN(C)C(=O)c1csc(-c2sc(C)nc2-c2ccc(F)cc2)n1 [Example 1836],> 1000 nM
16,CC(C)NC(=O)c1csc(-c2c(-c3ccc(F)cc3)noc2CN2CCCC(CO)C2)n1 (stereo not drawn) [Example 1536],> 1000 nM

row,Compound,IC50
1,CC(C)NC(=O)c1csc(-c2oc(CNCCN3CCCC3)nc2-c2ccc(F)cc2)n1 [Example 1093],> 1000 nM
2,O=C(NC1CCCc2ccccc21)c1csc(-c2c(-c3ccc(F)cc3)n[nH]c2C2CCNCC2)n1 (stereo not drawn) [Example 2116],> 1000 nM
3,Cc1nc(-c2ccc(F)cc2)c(-c2nc(C(=O)NCCc3c[nH]c4ccccc34)cs2)s1 [Example 1809],≤ 1000 nM
4,CC(C)NC(=O)c1csc(-c2c(-c3ccc(F)cc3)noc2CNCC(C)c2ccccc2)n1 (stereo not drawn) [Example 1449],> 1000 nM
5,CC(C)NC(=O)c1csc(-c2c(-c3ccc(F)cc3)n[nH]c2C2CCN(C(=O)Cc3ccccc3O)CC2)n1 [Example 857],≤ 1000 nM
6,CC(C)NC(=O)c1csc(-c2oc(CN(C)CCO)nc2-c2ccc(F)cc2)n1 [Example 1190],> 1000 nM
7,CC(C)NC(=O)c1csc(-c2c(-c3ccc(F)cc3)noc2CNc2ncccc2OCc2ccccc2)n1 [Example 1696],> 1000 nM
8,CC(C)NC(=O)c1csc(-c2c(-c3ccc(F)cc3)n[nH]c2C2CCN(C(=O)C(NC(=O)OC(C)(C)C)C(C)C)CC2)n1 (stereo not drawn) [Example 1013],> 1000 nM
9,CC(C)NC(=O)c1csc(-c2c(-c3ccc(F)cc3)noc2CNCCc2ccc3c(c2)OCO3)n1 [Example 1505],> 1000 nM
10,COc1ccc(CCN(C)Cc2onc(-c3ccc(F)cc3)c2-c2nc(C(=O)NC(C)C)cs2)cc1OC [Example 1598],> 1000 nM
11,Cc1nc(-c2ccc(F)cc2)c(-c2nc(C(=O)N3CCN(c4ccc(C(F)(F)F)cc4)CC3)cs2)s1 [Example 1947],> 1000 nM
12,O=C(NCCc1cccc(F)c1)c1csc(-c2c(-c3ccc(F)cc3)n[nH]c2C2CCNCC2)n1 [Example 2106],> 1000 nM
13,Cc1nc(-c2ccc(F)cc2)c(-c2nc(C(=O)N(CCc3ccccc3)Cc3ccccc3)cs2)s1 [Example 1937],> 1000 nM
14,CC(C)NC(=O)c1csc(-c2c(-c3ccc(F)cc3)noc2CN2CCC(C(N)=O)CC2)n1 [Example 1544],> 1000 nM
15,CC(C)NC(=O)c1csc(-c2c(-c3ccc(F)cc3)noc2CN2CCN(C3CCCCC3)CC2)n1 [Example 1573],> 1000 nM

# — patent publication US20060252807A1, “Novel ortho-terphenyl inhibitors of p38 kinase and methods of treating inflammatory disorders” (Kalypsys, Inc., priority 2005, published 2006)
